The values below come from patent US20240158418A1 (C4 Therapeutics, Inc., priority 2021, published 2024).

SMILES strings stand for the structures. Read-outs that look alike come from different tables or passages of the source.

Holding throughout (format): cell-based
The target of one experiment is EGFR L858R (Homo sapiens, UniProt P00533, L858R). Put plainly: EGFR degradation, Total EGFR (L858R-specific) HTRF, NCI-H3255. Set-up: NCI-H3255 (harboring EGFR heterozygous L858R mutation); host or cells: NCI-H3255. To be noted: Table 9A; NCI-H3255 cells, 6 hours, Total EGFR HTRF; read-out: H3255 EGFR DC50. Summed up: (§1)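 FRET signal from HTRF kits measured phospho-EGFR at pY1068 or total EGFR after 6 h treatment at 37 °C. Compounds ran as 11-point half-log dilutions from 10 μM in duplicate, in cells in phenol red-free RPMI with 10% FBS. Concentrations giving 50% inhibition or degradation were reported as IC50 or DC50.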
Sequence of EGFR L858R (P00533 25-1210 L858R): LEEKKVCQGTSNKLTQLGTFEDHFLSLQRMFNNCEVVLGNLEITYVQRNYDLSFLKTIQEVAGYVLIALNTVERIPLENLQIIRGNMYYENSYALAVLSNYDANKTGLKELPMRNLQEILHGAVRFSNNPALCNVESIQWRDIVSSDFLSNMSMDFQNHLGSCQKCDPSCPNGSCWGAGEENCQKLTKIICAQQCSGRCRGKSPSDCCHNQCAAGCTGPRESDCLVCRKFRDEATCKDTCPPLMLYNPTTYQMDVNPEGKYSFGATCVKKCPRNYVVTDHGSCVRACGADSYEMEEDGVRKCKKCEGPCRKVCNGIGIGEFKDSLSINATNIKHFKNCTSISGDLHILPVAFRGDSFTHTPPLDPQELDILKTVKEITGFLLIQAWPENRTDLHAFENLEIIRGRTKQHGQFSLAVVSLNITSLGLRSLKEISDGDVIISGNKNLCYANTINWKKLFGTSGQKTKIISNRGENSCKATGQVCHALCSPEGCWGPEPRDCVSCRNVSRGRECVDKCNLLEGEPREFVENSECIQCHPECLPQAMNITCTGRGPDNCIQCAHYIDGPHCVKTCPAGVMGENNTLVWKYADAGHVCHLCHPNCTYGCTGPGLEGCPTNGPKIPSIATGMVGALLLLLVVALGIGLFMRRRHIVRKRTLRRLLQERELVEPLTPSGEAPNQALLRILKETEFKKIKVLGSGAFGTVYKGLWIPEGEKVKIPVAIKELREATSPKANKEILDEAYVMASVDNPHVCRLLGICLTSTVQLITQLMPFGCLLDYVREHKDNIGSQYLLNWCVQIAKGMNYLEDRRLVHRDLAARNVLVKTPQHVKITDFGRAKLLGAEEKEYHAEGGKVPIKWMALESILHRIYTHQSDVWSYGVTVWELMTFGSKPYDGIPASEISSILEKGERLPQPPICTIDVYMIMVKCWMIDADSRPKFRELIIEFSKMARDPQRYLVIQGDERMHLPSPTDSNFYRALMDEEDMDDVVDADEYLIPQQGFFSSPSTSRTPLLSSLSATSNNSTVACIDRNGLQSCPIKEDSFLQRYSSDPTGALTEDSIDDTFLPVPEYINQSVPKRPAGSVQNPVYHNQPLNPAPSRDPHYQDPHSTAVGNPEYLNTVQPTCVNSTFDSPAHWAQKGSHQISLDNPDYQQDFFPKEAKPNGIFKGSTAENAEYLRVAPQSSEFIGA

The target in the next experiment is T1, EGFR L858R-T790M-C797S (Homo sapiens, UniProt P00533, C797S/L858R/T790M).
T1 construct: generated using CRISPR technology to introduce the additional C797S mutation by Horizon Discovery; host or cells: NCI-H1975+CS (CRISPR knock-in of C797S)
T1 sequence (P00533 25-1210 T790M/C797S/L858R): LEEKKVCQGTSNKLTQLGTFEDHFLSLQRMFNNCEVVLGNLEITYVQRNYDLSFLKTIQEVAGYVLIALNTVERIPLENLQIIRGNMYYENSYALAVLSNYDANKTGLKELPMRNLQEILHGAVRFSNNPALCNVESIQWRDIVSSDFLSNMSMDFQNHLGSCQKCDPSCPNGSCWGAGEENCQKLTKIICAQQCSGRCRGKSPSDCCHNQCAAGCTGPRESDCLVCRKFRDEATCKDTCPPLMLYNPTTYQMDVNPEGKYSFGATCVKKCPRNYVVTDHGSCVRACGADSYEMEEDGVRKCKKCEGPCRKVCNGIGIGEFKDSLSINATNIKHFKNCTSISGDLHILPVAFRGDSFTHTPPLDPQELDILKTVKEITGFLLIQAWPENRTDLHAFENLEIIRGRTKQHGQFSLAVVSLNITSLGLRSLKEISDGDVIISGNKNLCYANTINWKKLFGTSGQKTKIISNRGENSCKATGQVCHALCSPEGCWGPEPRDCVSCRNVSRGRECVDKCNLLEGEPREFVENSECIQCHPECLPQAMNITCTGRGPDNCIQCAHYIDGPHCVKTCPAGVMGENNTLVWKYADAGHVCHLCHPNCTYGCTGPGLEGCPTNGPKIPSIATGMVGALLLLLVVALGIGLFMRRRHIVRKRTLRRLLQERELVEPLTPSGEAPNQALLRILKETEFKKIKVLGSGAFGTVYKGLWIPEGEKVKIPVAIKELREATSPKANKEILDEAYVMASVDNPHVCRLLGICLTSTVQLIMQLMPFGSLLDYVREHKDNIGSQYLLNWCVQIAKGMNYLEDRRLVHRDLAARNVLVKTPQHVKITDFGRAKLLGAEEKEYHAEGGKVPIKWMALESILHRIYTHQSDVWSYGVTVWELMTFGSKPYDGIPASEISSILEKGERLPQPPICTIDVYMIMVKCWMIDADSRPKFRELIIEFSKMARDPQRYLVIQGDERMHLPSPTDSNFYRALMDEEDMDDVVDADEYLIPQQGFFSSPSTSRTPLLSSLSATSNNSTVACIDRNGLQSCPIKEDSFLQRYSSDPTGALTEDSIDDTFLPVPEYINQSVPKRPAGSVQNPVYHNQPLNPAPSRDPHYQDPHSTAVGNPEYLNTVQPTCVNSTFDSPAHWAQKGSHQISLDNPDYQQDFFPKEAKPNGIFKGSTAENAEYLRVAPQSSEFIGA
Put plainly: EGFR degradation, Total EGFR (L858R-specific) HTRF, NCI-H1975+CS. To be noted: 6 hours, Total EGFR HTRF. An excerpt: NCI-H1975 (harboring EGFR heterozygous L858R-T790M mutations) and NCI-H3255 (harboring EGFR heterozygous L858R mutation) were purchased from ATCC and NCI, respectively. NCI-H1975+CS (harboring EGFR heterozygous L858R-T790M-C797S mutations) was generated using CRISPR technology to introduce the additional C797S mutation by Horizon Discovery. A431 (harboring EGFR wildtype) was purchased from ATCC. RPMI 1640 no-phenol red medium and fetal bovine serum (FBS) were purchased from Gibco (Grand Island, NY, USA). Cell culture flasks and 384-well microplates were acquired from VWR (Radnor, PA, USA). Phosphorylated (pY1068) EGFR and Total EGFR (using L858R-specific detection antibody and pan-EGFR antibody for EGFR mutant cell lines and EGFR wild-type cell lines, respectively) HTRF assay kits were purchased from Cisbio (Bedford, MA, USA).
Degradation of EGFR protein containing L858R mutation or wild-type was determined based on quantification of FRET signal using a Total EGFR (L858R-specific or pan-EGFR detecting) HTRF assay kit. Phospho-EGFR (pEGFR) inhibition was determined based on quantification of FRET signal using a pY1068 EGFR HTRF assay kit. In separate assay plates, test compounds were added to the 384-well plate from a top concentration of 10 μM with 11 points, half log titration in duplicates. For each assay, 12.5 uL of cells suspended in assay media (RPMI 1640 no-phenol red medium+10% FBS) at cell densities indicated for each cell line in Table 8 below were dispensed using a multi-channel pipette to 384-well low volume white HTRF microplates containing a duplicate concentration range of test compounds and DMSO controls. The plates were kept at 37° C. with 5% CO2 for 6 hours and then incubated with either phospho EGFR or Total EGFR HTRF detection antibodies according to the cell line and EGFR mutant being assayed. Cells treated in the absence of the test compound were the negative control. Positive control was set by wells containing all reagents but no cells. FRET signal was acquired on EnVision™ Multilabel Reader (PerkinElmer, Santa Clara, CA, USA). Compound concentration that achieves 50% degradation and inhibition was reported as DC50 and IC50, respectively.

In the next experiment the target is T2, EGFR L858R-T790M (Homo sapiens, UniProt P00533, L858R/T790M).
T2 construct: NCI-H1975 (harboring EGFR heterozygous L858R-T790M mutations); host or cells: NCI-H1975
T2 sequence (P00533 25-1210 T790M/L858R): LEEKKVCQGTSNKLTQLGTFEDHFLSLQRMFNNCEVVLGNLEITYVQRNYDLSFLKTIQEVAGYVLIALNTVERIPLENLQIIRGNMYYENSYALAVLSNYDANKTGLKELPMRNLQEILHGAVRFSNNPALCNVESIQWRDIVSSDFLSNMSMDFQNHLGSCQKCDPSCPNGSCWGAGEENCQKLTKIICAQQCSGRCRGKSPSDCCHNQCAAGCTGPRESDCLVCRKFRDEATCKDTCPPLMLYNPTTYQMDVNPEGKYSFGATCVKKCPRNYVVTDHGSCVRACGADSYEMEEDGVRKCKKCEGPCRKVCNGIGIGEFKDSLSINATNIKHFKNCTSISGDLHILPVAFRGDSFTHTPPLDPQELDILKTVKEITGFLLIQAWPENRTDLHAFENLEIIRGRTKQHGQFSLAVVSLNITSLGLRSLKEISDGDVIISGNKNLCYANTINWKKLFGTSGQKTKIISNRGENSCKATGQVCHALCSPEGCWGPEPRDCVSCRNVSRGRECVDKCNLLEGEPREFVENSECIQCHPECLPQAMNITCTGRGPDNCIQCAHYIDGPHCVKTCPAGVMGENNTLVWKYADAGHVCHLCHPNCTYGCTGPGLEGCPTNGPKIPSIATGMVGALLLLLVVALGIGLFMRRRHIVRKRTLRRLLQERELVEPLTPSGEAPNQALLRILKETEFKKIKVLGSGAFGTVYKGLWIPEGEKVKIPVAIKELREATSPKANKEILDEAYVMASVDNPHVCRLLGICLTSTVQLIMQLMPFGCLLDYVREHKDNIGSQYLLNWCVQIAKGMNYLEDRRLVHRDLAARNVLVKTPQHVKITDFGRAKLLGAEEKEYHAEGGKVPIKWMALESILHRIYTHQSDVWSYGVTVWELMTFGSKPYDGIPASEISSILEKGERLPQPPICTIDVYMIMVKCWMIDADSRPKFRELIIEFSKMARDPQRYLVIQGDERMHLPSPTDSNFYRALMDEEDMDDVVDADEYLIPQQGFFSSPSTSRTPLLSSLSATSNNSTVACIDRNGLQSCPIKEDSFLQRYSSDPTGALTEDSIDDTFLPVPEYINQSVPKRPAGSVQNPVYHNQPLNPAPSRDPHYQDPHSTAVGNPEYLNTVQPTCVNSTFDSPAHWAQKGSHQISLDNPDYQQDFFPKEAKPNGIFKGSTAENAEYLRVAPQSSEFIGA
Put plainly: EGFR degradation, Total EGFR (L858R-specific) HTRF, NCI-H1975. To be noted: NCI-H1975 cells, 6 hours, Total EGFR HTRF, read-out: H1975 EGFR DC50. Summed up: as §1

Where [1] appears, read: Table 9A, NCI-H1975+CS cells, read-out: H1975+ CS EGFR DC50.
Setting [2] is: Table 9B, NCI-H1975 C797S clone, read-out: H1975 C797S clone EGFR DC50.

As to `O=C1CCC(Nc2ccc(C3CCN(CC(=O)N4CCN(c5ccc(-c6cc(F)c7c(c6)C(=O)N(C(C(=O)Nc6nccs6)c6ncn8c6C[C@@H](F)C8)C7)cc5)CC4)CC3)cc2)C(=O)N1` (mixture of isomers) [Compound 43, (2RS)-2-[6-[4-[4-[2-[4-[4-[[(3RS)-2,6-Dioxo-3-piperidyl]amino]phenyl]-1-piperidyl]acetyl]piperazin-1-yl]phenyl]-4-fluoro-1-oxo-isoindolin-2-yl]-2-[(6R)-6-fluoro-6,7-dihydro-5H-pyrrolo[1,2-c]imidazol-1-yl]-N-thiazol-2-yl-acetamide], the DC50 at EGFR L858R, at EGFR L858R-T790M-C797S (setting [1]) and on EGFR L858R-T790M (Table 9A) was less than 50 nM each time.

For `N#Cc1cc(NC2CCC(=O)NC2=O)ccc1C1CCN(CC(=O)N2CCN(c3ccc(-c4cc(F)c5c(c4)C(=O)N(C(C(=O)Nc4nccs4)c4ncn6c4CCC6)C5)cc3)CC2)CC1` (stereo not drawn) [Compound 14, 2-[6-[4-[4-[2-[4-[2-cyano-4-[(2,6-dioxo-3-piperidyl)amino]phenyl]-1-piperidyl]acetyl]piperazin-1-yl]phenyl]-4-fluoro-1-oxo-isoindolin-2-yl]-2-(6,7-dihydro-5H-pyrrolo[1,2-c]imidazol-1-yl)-N-thiazol-2-yl-acetamide], the DC50 on EGFR L858R, at EGFR L858R-T790M-C797S (setting [1]) and on EGFR L858R-T790M (Table 9A) was less than 50 nM in each case.

Consider `O=C1CCC(Nc2ccc(C3CCN(CC(=O)N4CCN(c5ccc(-c6cc(F)c7c(c6)C(=O)N(C(C(=O)Nc6nccs6)c6ncn8c6CCC8)C7)cc5)CC4)CC3)c(C(F)F)c2)C(=O)N1` (stereo not drawn) [Compound 15, 2-[6-[4-[4-[2-[4-[2-(difluoromethyl)-4-[(2,6-dioxo-3-piperidyl)amino]phenyl]-1-piperidyl]acetyl]piperazin-1-yl]phenyl]-4-fluoro-1-oxo-isoindolin-2-yl]-2-(6,7-dihydro-5H-pyrrolo[1,2-c]imidazol-1-yl)-N-thiazol-2-yl-acetamide], for which the DC50 on EGFR L858R, on EGFR L858R-T790M-C797S (setting [1]) and at EGFR L858R-T790M (Table 9A) was less than 50 nM in each case.

On to `Cn1nc(N2CCC(=O)NC2=O)c2ccc(C3CCN(CC(=O)N4CCN(c5ccc(-c6cc(F)c7c(c6)C(=O)N(C(C(=O)Nc6nccs6)c6ncn8c6CCC8)C7)cc5)CC4)CC3)cc21` (stereo not drawn) [Compound 17, 2-(6,7-dihydro-5H-pyrrolo[1,2-c]imidazol-1-yl)-2-(6-(4-(4-(2-(4-(3-(2,4-dioxotetrahydropyrimidin-1(2H)-yl)-1-methyl-1H-indazol-6-yl)piperidin-1-yl)acetyl)piperazin-1-yl)phenyl)-4-fluoro-1-oxoisoindolin-2-yl)-N-(thiazol-2-yl)acetamide], for which the 50% degradation concentration (DC50) at EGFR L858R, on EGFR L858R-T790M-C797S (setting [1]) and on EGFR L858R-T790M (Table 9A) was less than 50 nM in each case.

In the case of `O=C1CCC(Nc2ccc(C3CCN(CC(=O)N4CCN(c5ccc(-c6cc(F)c7c(c6)C(=O)N(C(C(=O)Nc6ccccn6)c6ncn8c6CCC8)C7)cc5)CC4)CC3)cc2)C(=O)N1` (stereo not drawn) [Compound 19, 2-(6,7-dihydro-5H-pyrrolo[1,2-c]imidazol-1-yl)-2-(6-(4-(4-(2-(4-(4-((2,6-dioxopiperidin-3-yl)amino)phenyl)piperidin-1-yl)acetyl)piperazin-1-yl)phenyl)-4-fluoro-1-oxoisoindolin-2-yl)-N-(pyridin-2-yl)acetamide], the half-maximal degradation concentration (DC50) is less than 50 nM at EGFR L858R, less than 50 nM at EGFR L858R-T790M-C797S (setting [1]) and 50 to 150 nM on EGFR L858R-T790M (Table 9A).

For the compound `O=C1CCC(Nc2ccc(C3CCN(CC(=O)N4CCN(c5ccc(-c6cc(F)c7c(c6)C(=O)N(C(C(=O)Nc6ccccn6)c6ncn8c6CCC8)C7)cc5)CC4)CC3)c(F)c2)C(=O)N1` (stereo not drawn) [Compound 20, 2-(6,7-dihydro-5H-pyrrolo[1,2-c]imidazol-1-yl)-2-[6-[4-[4-[2-[4-[4-[(2,6-dioxo-3-piperidyl)amino]-2-fluoro-phenyl]-1-piperidyl]acetyl]piperazin-1-yl]phenyl]-4-fluoro-1-oxo-isoindolin-2-yl]-N-(2-pyridyl)acetamide], the DC50 at EGFR L858R was less than 50 nM; on EGFR L858R-T790M-C797S (setting [1]), less than 50 nM; at EGFR L858R-T790M (Table 9A), 50 to 150 nM.

`O=C1CCC(Nc2ccc(C3CCN(CC(=O)N4CCC(c5ccc(-c6cc(F)c7c(c6)C(=O)N(C(C(=O)Nc6nccs6)c6ncn8c6CCC8)C7)cc5)CC4)CC3)cc2)C(=O)N1` (stereo not drawn) [Compound 21, 2-(6,7-dihydro-5H-pyrrolo[1,2-c]imidazol-1-yl)-2-(6-(4-(1-(2-(4-(4-((2,6-dioxopiperidin-3-yl)amino)phenyl)piperidin-1-yl)acetyl)piperidin-4-yl)phenyl)-4-fluoro-1-oxoisoindolin-2-yl)-N-(thiazol-2-yl)acetamide]: the DC50 on EGFR L858R, on EGFR L858R-T790M-C797S (setting [1]) and at EGFR L858R-T790M (Table 9A) was less than 50 nM throughout.

Regarding `O=C1CC[C@H](Nc2ccc(C3CCN(CC(=O)N4CCC(c5ccc(-c6cc(F)c7c(c6)C(=O)N(C(C(=O)Nc6nccs6)c6ncn8c6CCC8)C7)cc5)CC4)CC3)c(F)c2)C(=O)N1` (stereo partly drawn) [Compound 24, 2-(6,7-dihydro-5H-pyrrolo[1,2-c]imidazol-1-yl)-2-(6-(4-(1-(2-(4-(4-(((S)-2,6-dioxopiperidin-3-yl)amino)-2-fluorophenyl)piperidin-1-yl)acetyl)piperidin-4-yl)phenyl)-4-fluoro-1-oxoisoindolin-2-yl)-N-(thiazol-2-yl)acetamide], the DC50 was less than 50 nM at EGFR L858R, less than 50 nM at EGFR L858R-T790M-C797S (setting [1]) and 50 to 150 nM at EGFR L858R-T790M (Table 9A).

For the compound `O=C1CCC(Nc2ccc(N3CCC(O)(CC(=O)N4CCC(NC(=O)c5ccc(C#Cc6cc(F)c7c(c6)C(=O)N(C(C(=O)Nc6nccs6)c6ncn8c6CCC8)C7)cn5)CC4)CC3)c(F)c2)C(=O)N1` (stereo not drawn) [Compound 96, 5-((2-(1-(6,7-dihydro-5H-pyrrolo[1,2-c]imidazol-1-yl)-2-oxo-2-(thiazol-2-ylamino)ethyl)-7-fluoro-3-oxoisoindolin-5-yl)ethynyl)-N-(1-(2-(1-(4-((2,6-dioxopiperidin-3-yl)amino)-2-fluorophenyl)-4-hydroxypiperidin-4-yl)acetyl)piperidin-4-yl)picolinamide], the DC50 on EGFR L858R-T790M-C797S (setting [2]) and at EGFR L858R-T790M (Table 9B) was less than 50 nM each time.

As to `O=C1CCC(Nc2ccc(N3CCC(O)(CC(=O)N4CC5(C4)CN(c4ccc(-c6cc(F)c7c(c6)C(=O)N(C(C(=O)Nc6ccccn6)c6ncn8c6CCC8)C7)cc4)C5)CC3)c(F)c2)C(=O)N1` (stereo not drawn) [Compound 99, 2-(6,7-dihydro-5H-pyrrolo[1,2-c]imidazol-1-yl)-2-[6-[4-[2-[2-[1-[4-[(2,6-dioxo-3-piperidyl)amino]-2-fluoro-phenyl]-4-hydroxy-4-piperidyl]acetyl]-2,6-diazaspiro[3.3]heptan-6-yl]phenyl]-4-fluoro-1-oxo-isoindolin-2-yl]-N-(2-pyridyl)acetamide], the 50% degradation concentration (DC50) on EGFR L858R-T790M-C797S (setting [2]) and on EGFR L858R-T790M (Table 9B) was less than 50 nM in each case.

Regarding `Cn1nc(N2CCC(=O)NC2=O)c2ccc(C3CCN(CC(=O)N4CC5(C4)CN(c4ccc(-c6cc(F)c7c(c6)C(=O)N(C(C(=O)Nc6nccs6)c6ncn8c6CCC8)C7)cc4)C5)C4(CC4)C3)cc21` (stereo not drawn) [Compound 154, 2-(6,7-dihydro-5H-pyrrolo[1,2-c]imidazol-1-yl)-2-[6-[4-[2-[2-[7-[3-(2,4-dioxohexahydropyrimidin-1-yl)-1-methyl-indazol-6-yl]-4-azaspiro[2.5]octan-4-yl]acetyl]-2,6-diazaspiro[3.3]heptan-6-yl]phenyl]-4-fluoro-1-oxo-isoindolin-2-yl]-N-thiazol-2-yl-acetamide], the DC50 on EGFR L858R-T790M-C797S (setting [2]) and on EGFR L858R-T790M (Table 9B) was less than 50 nM in each case.
